Reference: patent US8545884B2, “Solid pharmaceutical formulations comprising BIBW 2992” (Boehringer Ingelheim International GmbH, priority 2008, dated 2013)

Key:
[1] = Tablet content uniformity (RSD) before and after roller compaction and sieving; assay type: physicochemical; settings: roller compaction, Sieve A
[2] = Chemical stability of the API against moisture / wet granulation; assay type: physicochemical
[3] = Bulk densities (poured, tapped; Ph. Eur. 2.9.15) and Hausner factor of powders; assay type: physicochemical; settings: for Hausner Factor (ρT/ρP) / Poured density (ρP) / Tapped density (ρT): un-milled drug substance
Method: Bulk density is measured according to Ph. Eur. 2.9.15 (European Pharmacopoeia, 4. Ed.) as poured density. The tapped density is measured according to Ph. Eur. 2.9.15 (see also Voigt R., Lehrbuch der pharmazeutischen Technologie [Textbook of Pharmaceutical Technology], Verlag Chemie, 5th Edition, page 148). The Hausner factor is a measure for the flowability/compressibility of powders and ideally should be close to 1. […] They range from 0.12 to 0.40 g/mL, caused by different needle lengths (Table 2). The roller compaction step was introduced for densification of the material (see Table 3), which may have • a variability of the poured density between […] (see Table 1) and • a Hausner Factor between 1.05 and 1.61 (see Table 1).

[4] = Phase I pharmacokinetics of BIBW 2992 together with docetaxel in cancer patients; assay type: in vivo, human (cancer patients); settings: once daily dosing, visual inspection
[5] = Phase I pharmacokinetics of BIBW 2992 monotherapy in cancer patients with advanced solid tumors; assay type: in vivo, human (cancer patients)
Method: In four Phase I studies in cancer patients with various advanced solid tumors the pharmacokinetik (PK) characteristics of BIBW 2992 were analyzed. Representative for all of the studies and all the tested dose groups (10 to 100 mg) the 40 mg dose group from one trial is being described in more detail. […] BIBW 2992 plasma concentrations increased after oral administration with peak plasma concentrations mostly around 2-5 hours after dosing. Plasma concentrations declined within the next hours (up to 9 h after dosing), displaying a first disposition phase.
The variability (gCV=geometric coefficient of variation) of the plasma concentrations of the active substance at the different time points was 109-159% up to 9 hours after drug administration but 66.9 to 72.9% at later time points (24 hours after drug administration).

[6] = batch 1, roller compaction, Sieve A, Sieve B
[7] = batch 1, roller compaction, Sieve A, Sieve C
[8] = batch 1, roller compaction, Sieve A, no sieving 2
[9] = batch 2, roller compaction, Sieve A, Sieve C
[10] = batch 3, roller compaction, Sieve A, Sieve C
[11] = 10 to 100 mg, qd dosing, single dose and steady state

Compound: CN(C)C/C=C/C(=O)Nc1cc2c(Nc3ccc(F)c(Cl)c3)ncnc2cc1O[C@H]1CCOC1.O=C(O)/C=C\C(=O)O.O=C(O)/C=C\C(=O)O [BIBW 2992 MA2]
- RSD- Tablet Content (High Dose) ([1]; batch 1, Sieve B): 1.4%
- RSD- Tablet Content (Low Dose) ([1]; batch 1, Sieve B): 3.6%
- RSD- Tablet Content (High Dose) ([1]; batch 1, Sieve C): 1.0%
- RSD- Tablet Content (Low Dose) ([1]; batch 1, Sieve C): 1.4%
- RSD- Tablet Content (High Dose) ([1]; batch 1, no sieving 2): 3.4%
- RSD- Tablet Content (Low Dose) ([1]; batch 1, no sieving 2): 7.7%
- RSD- Tablet Content (High Dose) ([1]; batch 2, Sieve C): 0.8%
- RSD- Tablet Content (High Dose) ([1]; batch 3, Sieve C): 1.7%
- chemical stability against moisture ([2]; drug substance as described in WO 2005/037824): susceptibility against moisture
- stability during wet granulation ([2]; wet granulation processing): underwent hydrolytical decomposition and further degradation reaction
- Poured density ([3]; Table 3, drug substance batch 1, before processing): 0.12 g/mL
- Poured density ([3]; Table 3, drug substance batch 2, before processing): 0.31 g/mL
- Poured density ([3]; Table 3, drug substance batch 3, before processing): 0.40 g/mL
- Poured density of Final Blend ([3]; batch 1, no roller compaction, no sieving): 0.40 g/mL
- Poured density of Compacted Intermediate of BIBW 2992 MA2 [3, 6]: 0.29 g/mL
- Poured density of Final Blend [3, 6]: 0.53 g/mL
- Poured density of Compacted Intermediate of BIBW 2992 MA2 [3, 7]: 0.24 g/mL
- Poured density of Final Blend [3, 7]: 0.53 g/mL
- Poured density of Compacted Intermediate of BIBW 2992 MA2 [3, 8]: 0.33 g/mL
- Poured density of Final Blend [3, 8]: 0.56 g/mL
- Poured density of Compacted Intermediate of BIBW 2992 MA2 [3, 9]: 0.41 g/mL
- Poured density of Final Blend [3, 9]: 0.60 g/mL
- Poured density of Compacted Intermediate of BIBW 2992 MA2 [3, 10]: 0.36 g/mL
- Poured density of Final Blend [3, 10]: 0.60 g/mL
- Hausner Factor (ρT/ρP) ([3]; batch 0): 1.20
- Poured density (ρP) ([3]; batch 0): 0.23 g/mL
- Tapped density (ρT) ([3]; batch 0): 0.28 g/mL
- Hausner Factor (ρT/ρP) ([3]; batch 1): 1.33
- Poured density (ρP) ([3]; batch 1): 0.12 g/mL
- Tapped density (ρT) ([3]; batch 1): 0.16 g/mL
- Hausner Factor (ρT/ρP) ([3]; batch 2): 1.08
- Poured density (ρP) ([3]; batch 2): 0.40 g/mL
- Tapped density (ρT) ([3]; batch 2): 0.43 g/mL
- Hausner Factor (ρT/ρP) ([3]; batch 3): 1.26
- Poured density (ρP) ([3]; batch 3): 0.31 g/mL
- Tapped density (ρT) ([3]; batch 3): 0.39 g/mL

Compound: CN(C)C/C=C/C(=O)Nc1cc2c(Nc3ccc(F)c(Cl)c3)ncnc2cc1O[C@H]1CCOC1 [BIBW 2992, 4-[(3-chloro-4-fluorophenyl)amino]-6-{[4-(N,N-dimethylamino)-1-oxo-2-buten-1-yl]amino}-7-((S)-tetrahydrofuran-3-yloxy)-quinazoline]
- AUC and Cmax dose dependence [4]: no sign for a deviation from a dose proportional increase
- variability (gCV) of the plasma concentrations ([5]; 40 mg dose group, n=17, time points up to 9 hours after drug administration): 109-159%
- disposition kinetics ([5]; 40 mg once daily oral, day 27 of Treatment Period 1): at least biexponential disposition kinetics
- time of peak plasma concentrations after dosing ([5]; 40 mg once daily oral, day 27 of Treatment Period 1, n=17): 2 to 5 h
- gMean AUCτ,ss dose dependence [5, 11]: increased in a dose-proportional manner
- gMean Cmax,ss dose dependence [5, 11]: increased in a dose-proportional manner
- Cpre,ss (plasma concentration before drug administration at steady state) dose dependence ([5]; various clinical trials, visual inspection, data not shown): no deviation from dose-proportionality
